{"source": "paper PMC4210147", "about": "“Sequence-Specific Dimerization of a Transmembrane Helix in Amphipol A8-35” (PLoS ONE, 2014)", "key": {"human GpA TM domain [1]": {"target": "T1, human GpA TM domain (Homo sapiens, UniProt P02724)", "T1 construct": "purchased Peptide Specialty Laboratories, Heidelberg, Germany; host or cells: chemical synthesis (custom peptide)", "T1 sequence (P02724 88-120 limits assumed) 1": "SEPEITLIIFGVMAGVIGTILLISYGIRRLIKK", "T1 sequence (P02724 88-120 limits assumed) 2": "T1 sequence (P02724 88-120 limits assumed) 1", "assay": "FRET kinetics of exchange of GpA TM peptides between particles/micelles", "assay_type": "binding", "conditions": "for amplitude of first (fast) phase / amplitude of second (slow) phase / exchange rate constant, first (fast) phase / exchange rate constant, second (slow) phase: double-exponential fit", "procedure": "(§1) For Förster resonance energy transfer (FRET) measurements, equal concentrations of FL- and TAMRA-labeled GpA TM domains were used. Concentrations of the peptide stock solutions were determined from absorbance measurements on a Perkin Elmer Lambda 35 UV/VIS spectrophotometer. In all experiments, we used 0.25 µM for each of the two labeled GpA peptides. Peptides dissolved in TFE and A8-35 dissolved in ethanol were mixed, and organic solvents were removed under a gentle stream of nitrogen gas. Residual solvent traces were removed by vacuum desiccation overnight. The dried peptide/polymer film was then hydrated in 10 mM HEPES buffer (pH 7.4) containing 150 mM NaCl.\n(§2) After at least 2 h of incubation at 37°C and 10 min of centrifugation at 16,000 g, steady-state fluorescence measurements were performed with the supernatant at 25°C on a Horiba Fluoromax 4 system with both excitation and emission slits at 3 nm. The excitation wavelength was set at 439 nm, and emission spectra were recorded from 480 to 650 nm. For FRET measurements with SDS, several concentrations of SDS, both below and above the CMC determined for the given buffer conditions, were used, and hydrated samples were incubated overnight.\n(§3) Energy transfer E was calculated using the donor fluorescence intensities at 525 nm in presence and absence of acceptor according to [drawing 1] (1)\nTo investigate the effect of A8-35 on the GpA dimer stability in greater detail, we next performed kinetic measurements and determined the exchange rates of GpA TM helices between various polymer particles after reconstitution. Upon addition of an excess of a competing surfactant, such as free APols, detergents or phospholipids, MPs can be released from preformed complexes with APols, although at very slow dissociation rates, and e.g. integrate into detergent micelles, [37]-[39]. To test this, donor- and acceptor-labeled GpA peptides were individually solubilized in 20 µM A8-35 and incubated at 37°C for at least 2 h. Next, A8-35-solubilized donor and acceptor peptides were mixed in a 1∶1 ratio, and fluorescence emission spectra were recorded every 10 min for about 17 h (Figure 3A). As a control necessary for calculation of energy transfer, this measurement was also performed with solely the donor sample, for which no changes in fluorescence intensity were observed. […] To compare the exchange rates measured in APols with rates determined in micellar environments, the same experiment was performed in 5 mM DDM micelles (Figure 3C).\nFigure 3 Kinetics of the exchange of GpA TM peptides between APol aggregates. Donor- and acceptor-labelled GpA TM (each 0.25 µM) domains were separately solubilized in 20 µM APol at a final polymer/peptide ratio of 40∶1. (A) After incubation at 37°C, donor and acceptor were mixed, and emission spectra (normalized at 525 nm) were recorded every 10 min over a time period of 17 h at 25°C. (B) The energy transfer increased over hours to the level determined by steady-state FRET measurements due to mixing of donor- and acceptor-labelled peptides."}, "[2]": {"assay": "Far-UV circular dichroism, secondary structure content of GpA TM domain", "assay_type": "physicochemical", "conditions": "25°C; for α-helix content: unlabeled GpA peptide 5 µM, DICHROWEB CDSSTR, reference set 7, at least three averaged scans", "procedure": "CD spectra were recorded on a Jasco J-815 spectropolarimeter at 25°C in a step-scan mode using 0.1-cm path length quartz cells from Hellma (Mülheim, Germany). The concentration of unlabeled GpA peptide was 5 µM. Data points were collected at a resolution of 1 nm, an integration time of 1 s, and a bandwidth of 1 nm. Each shown spectrum results from at least three averaged scans from which buffer scans were subtracted. The measured ellipticity θ was converted to molar ellipticity [θ] by: [drawing 8] (5) where M is the molar mass, L the path length, and C the peptide concentration.\nThe GpA TM domain was reconstituted in 10 mM phosphate buffer (pH 7.4) containing A8-35 as well as in several solvents containing SDS, DDM, or pure TFE, which are known to stabilize α-helical structures. Prior to CD measurements, samples were treated in the same way as described above for FRET measurements. Secondary structure contents were estimated with the DICHROWEB software, [31] using both soluble and TM proteins as reference datasets (CDSSTR method, reference set 7)."}, "human GpA TM domain [3]": {"target": "T1, human GpA TM domain", "assay": "FRET at different acceptor mole ratios, stoichiometry of GpA TM domain association", "assay_type": "binding", "conditions": "constant total peptide, linear dependence, n = 2", "procedure": "as §1, with “For Förster resonance energy transfer (FRET) measurements, equal concentrations of FL- and TAMRA-labeled GpA TM domains were used.” left out, “In all experiments, we used 0.25 µM for each of the two labeled GpA peptides.” left out\nas §2, §3\nBesides formation of GpA dimers, the recorded energy transfer might, in principle, also originate from formation of higher-ordered oligomeric structures, such as trimers or tetramers, or even from unspecific peptide aggregation. […]"}}, "data": [{"smiles": "CC[C@H](C)[C@H](NC(=O)CNC(=O)[C@H](Cc1ccc(O)cc1)NC(=O)[C@H](CO)NC(=O)[C@@H](NC(=O)[C@H](CC(C)C)NC(=O)[C@H](CC(C)C)NC(=O)[C@@H](NC(=O)[C@@H](NC(=O)CNC(=O)[C@@H](NC(=O)[C@@H](NC(=O)CNC(=O)[C@H](C)NC(=O)[C@H](CCSC)NC(=O)[C@@H](NC(=O)CNC(=O)[C@H](Cc1ccccc1)NC(=O)[C@@H](NC(=O)[C@@H](NC(=O)[C@H](CC(C)C)NC(=O)[C@@H](NC(=O)[C@@H](NC(=O)[C@H](CCC(=O)O)NC(=O)[C@@H]1CCCN1C(=O)[C@H](CCC(=O)O)NC(=O)[C@@H](N)CO)[C@@H](C)CC)[C@@H](C)O)[C@@H](C)CC)[C@@H](C)CC)C(C)C)C(C)C)[C@@H](C)CC)[C@@H](C)O)[C@@H](C)CC)[C@@H](C)CC)C(=O)N[C@@H](CCCNC(=N)N)C(=O)N[C@@H](CCCNC(=N)N)C(=O)N[C@@H](CC(C)C)C(=O)N[C@H](C(=O)N[C@@H](CCCCN)C(=O)N[C@@H](CCCCN)C(=O)O)[C@@H](C)CC", "note": "[GpA TM domain]", "values": [{"measurement": "amplitude of first (fast) phase", "setting": "human GpA TM domain [1]; 5 mM DDM micelles", "value": 13.3}, {"measurement": "amplitude of second (slow) phase", "setting": "human GpA TM domain [1]; 5 mM DDM micelles", "value": 15.6}, {"measurement": "exchange rate constant, first (fast) phase", "setting": "human GpA TM domain [1]; 5 mM DDM micelles", "value": 41.5, "unit": "h⁻¹"}, {"measurement": "exchange rate constant, second (slow) phase", "setting": "human GpA TM domain [1]; 5 mM DDM micelles", "value": 5.8, "unit": "h⁻¹"}, {"measurement": "duration of peptide exchange", "setting": "human GpA TM domain [1]; 5 mM DDM micelles, listed as GpA TM peptides", "value": "completed after some dozen minutes"}, {"measurement": "energy transfer", "setting": "human GpA TM domain [1]; 17 h after 1:1 mixing of donor- and acceptor-labeled peptides (each 0.25 µM) in 20 µM A8-35, 25°C", "value": "~35", "unit": "%"}, {"measurement": "dimer fraction after exchange", "setting": "human GpA TM domain [1]; 17 h after mixing, from energy transfer, 20 µM A8-35, 25°C", "value": "~0.7"}, {"measurement": "duration of peptide exchange", "setting": "human GpA TM domain [1]; A8-35 (20 µM)", "value": "proceeded for several hours"}, {"measurement": "amplitude of first (fast) phase", "setting": "human GpA TM domain [1]; A8-35 (20 µM), 25°C", "value": 8.7}, {"measurement": "amplitude of second (slow) phase", "setting": "human GpA TM domain [1]; A8-35 (20 µM), 25°C", "value": 12.4}, {"measurement": "exchange rate constant, first (fast) phase", "setting": "human GpA TM domain [1]; A8-35 (20 µM), 25°C", "value": 2.2, "unit": "h⁻¹"}, {"measurement": "exchange rate constant, second (slow) phase", "setting": "human GpA TM domain [1]; A8-35 (20 µM), 25°C", "value": 0.17, "unit": "h⁻¹"}, {"measurement": "α-helix content", "setting": "[2]; 5 µM A8-35, 10 mM phosphate buffer pH 7.4", "value": 67, "unit": "%"}, {"measurement": "effect of higher APol concentrations on peptide's secondary structure", "setting": "[2]; A8-35 concentrations above 5 µM, CD, 5 µM peptide", "value": "did not significantly affect the peptide's secondary structure"}, {"measurement": "α-helix content", "setting": "[2]; in 5 mM DDM", "value": 79, "unit": "%"}, {"measurement": "α-helix content", "setting": "[2]; in 5 mM SDS", "value": 76, "unit": "%"}, {"measurement": "α-helix content", "setting": "[2]; in TFE (pure)", "value": 62, "unit": "%"}, {"measurement": "stoichiometry of association (energy transfer vs acceptor mole fraction)", "setting": "human GpA TM domain [3]; 5 µM A8-35", "value": "exclusive dimer formation"}, {"measurement": "stoichiometry of association (energy transfer vs acceptor mole fraction)", "setting": "human GpA TM domain [3]; 50 µM A8-35", "value": "exclusive dimer formation"}]}]}
